Reference: patent US20230020663A1, “SULFONAMIDE INHIBITORS AS CTPS1 INHIBITORS” (Step Pharma S.A.S., priority 2019, published 2023)

Tested on: human CTPS1 versus CTPS2
Test: Human CTPS1 versus CTPS2 selectivity assessment by RapidFire/MS analysis
Type: biochemical
Conditions: RapidFire/MS IC50 ratio
Procedure: Human CTPS1 versus CTPS2 Selectivity Assessment by RapidFire/MS Analysis.
The enzyme inhibitory activities against each target isoform of interest may be determined for the compounds of the invention using an optimised RapidFire high-throughput mass spectrometry (RF/MS) assay format. RF/MS assays for both human CTPS1 and CTPS2 may be performed in assay buffer consisting of 50 mM HEPES (Merck), 20 mM MgCl2, 5 mM KCl, 1 mM DTT, 0.01% Tween-20, pH to 8.0 accordingly. Human full-length active C-terminal FLAG-His-tag CTPS1 (UniProtKB—P17812, CTPS[1-591]-[…]) may be obtained from Proteros biostructures GmbH. Human full length active C-terminal FLAG-His-Avi tagged CTPS2 (UniProtKB-Q9NRF8, CTPS2 [1-586]-[…]) may be obtained from Harker Bio.
Human CTPS (1 or 2) protein may be prepared in 1× assay buffer to the final working protein concentration required for the reaction. A 2 uL volume per well of 2×CTPS (1 or 2) protein may be mixed with 40 nL of compound using acoustic (ECHO) delivery and incubated for 10 minutes at 25° C. Each isoform enzymatic reaction may be subsequently initiated by addition of 2 uL per well of a 2× substrate mix in assay buffer. For hCTPS1: ATP (0.3 mM), UTP (0.2 mM), GTP (0.07 mM) and L-glutamine (0.1 mM). For hCTPS2: ATP (0.1 mM), UTP (0.04 mM), GTP (0.03 mM) and L-glutamine (0.1 mM). Each mixture may be incubated for an appropriate amount of time per isoform within the determined linear phase of the reaction at 25′C. A 60 uL volume of stop solution (1% formic acid with 0.5 uM ^13C9-^15N3-CTP in H2O) may be added and the plate immediately heat-sealed and centrifuged for 10 minutes at 4,000 rpm. Following centrifugation, plates may be loaded onto the Agilent RapidFire microfluidic solid phase extraction system coupled to an API4000 triple quadrupole mass spectrometer (RF/MS) for analysis.
In all cases, the enzyme converts UTP to CTP. Highly specific and sensitive multiple reaction monitoring (MRM) MS methods may be optimised for the detection of the enzymatic reaction product, CTP, and the stable isotope labelled product standard ^13C9-^15N3-CTP. Readout for data analysis may be calculated as the ratio between the peak area of the product CTP and the internal standard ^13C9-^15N3-CTP. For data reporting, the following equation may be used: […]
For each screening plate, the means of the negative (DMSO) and positive control values were used for the calculation of the respective assay window (S/B) and Z′ values. The median of the respective control values was used for calculation of percent inhibition according to the following equation: […]
Percentage inhibition was then plotted against compound concentration, and the 50% inhibitory concentration (IC50) was determined from the resultant concentration-response curve.
Fold selectivity between CTPS1 and CTPS2 was subsequently calculated according to the following equation: […]

Compound | Selectivity (fold selectivity between CTPS1 and CTPS2) (Table 26) | Selectivity (fold selectivity between CTPS1 and CTPS2) (Table 27)
CCOc1cncc(-c2ccc(NC(=O)C(CCOC)c3ccnc(NS(=O)(=O)C4CC4)n3)cc2)n1 (stereo not drawn) [Example P110] | ++ (>30-60 fold (++)) | –
CCOc1cncc(-c2ccc(NC(=O)C3(c4ccnc(NS(=O)(=O)C5CC5)n4)CCOCC3)nc2)n1 [Example P115, 4-(2-(Cyclopropanesulfonamido)pyrimidin-4-yl)-N-(5-(6-ethoxypyrazin-2-yl)pyridin-2-yl)tetrahydro-2H-pyran-4-carboxamide] | +++ (>60 fold (+++)) | –
CCOc1cncc(-c2ccc(C(=O)NCc3ccnc(NS(=O)(=O)C4CC4)n3)cc2)n1 [Example P118] | +++ (>60 fold (+++)) | –
CC(C)(C(=O)Nc1ccc(-c2cncc(C3CC3)n2)cn1)c1ccnc(NS(=O)(=O)C2CC2)n1 [Example P125] | ++ (>30-60 fold (++)) | –
CC(C)(C(=O)Nc1ccc(-c2cncc(C3CC3)n2)cc1F)c1ccnc(NS(=O)(=O)C2CC2)n1 [Example P128] | + (2-30 fold (+)) | –
CC(C)c1cncc(-c2ccc(NC(=O)C(C)(C)c3ccnc(NS(=O)(=O)C4CC4)n3)cc2)n1 [Example P132] | ++ (>30-60 fold (++)) | –
CCOc1cncc(-c2ccc(NC(=O)C3(c4ccnc(NS(=O)(=O)C5CC5)n4)CCCC3)nc2)n1 [Example P136] | +++ (>60 fold (+++)) | –
CCOc1cncc(-c2ccc(NC(=O)C3(c4ccnc(NS(=O)(=O)C5CC5)n4)CCOCC3)c(F)c2)n1 [Example P143] | +++ (>60 fold (+++)) | –
CCOc1cncc(-c2ccc(NC(=O)C(CCOC)c3ccnc(NS(=O)(=O)C4CC4)n3)nc2)n1 (stereo not drawn) [Example P145] | +++ (>60 fold (+++)) | –
CCOc1cncc(-c2ccc(NC(=O)C(CCOC)c3ccnc(NS(=O)(=O)C4CC4)n3)c(F)c2)n1 (stereo not drawn) [Example P146] | +++ (>60 fold (+++)) | –
CCOc1cncc(-c2ccc(NC(=O)C(F)(CC)c3ccnc(NS(C)(=O)=O)n3)nc2)n1 (stereo not drawn) [Example P151] | +++ (>60 fold (+++)) | –
CCOc1cncc(-c2cnc(NC(=O)C(CC)c3ccnc(NS(=O)(=O)C4CC4)n3)c(C)c2)n1 (stereo not drawn) [Example P155] | + (2-30 fold (+)) | –
CCC(C(=O)Nc1ncc(-c2cncc(OC)n2)cc1F)c1ccnc(NS(=O)(=O)C2CC2)n1 (stereo not drawn) [Example P158] | + (2-30 fold (+)) | –
CCC(C(=O)Nc1ccc(-c2cncc(OC)n2)cn1)c1ccnc(NS(=O)(=O)C2CC2)n1 (stereo not drawn) [Example P159] | +++ (>60 fold (+++)) | –
CCOc1cncc(-c2ccc(NC(=O)C(CC)c3ccnc(NS(=O)(=O)C4CC4)n3)c(C)c2)n1 (stereo not drawn) [Example P161] | + (2-30 fold (+)) | –
CCOc1cncc(-c2cnc(NC(=O)C(CC)c3ccnc(NS(=O)(=O)C4CC4)n3)c(F)c2)n1 (stereo not drawn) [Example P162] | ++ (>30-60 fold (++)) | –
CCOc1cncc(-c2ccc(NC(=O)C(C)(CC)c3ccnc(NS(=O)(=O)C4CC4)n3)nc2)n1 (stereo not drawn) [Example P163] | +++ (>60 fold (+++)) | –
CCOc1cncc(-c2ccc(NC(=O)C(OC)c3ccnc(NS(=O)(=O)C4CC4)n3)cc2)n1 (stereo not drawn) [Example P164] | + (2-30 fold (+)) | –

Compound | Selectivity (fold selectivity between CTPS1 and CTPS2) (Table 26) | Selectivity (fold selectivity between CTPS1 and CTPS2) (Table 27)
CCOc1cncc(-c2ccc(NC(=O)C(CC)c3cccc(NS(=O)(=O)C4CC4)n3)nc2)n1 (stereo not drawn) [Example P188] | ++ (>30-60 fold (++)) | –
CCOc1cncc(-c2ccc(NC(=O)C(CC)c3cccc(NS(=O)(=O)C4CC4)n3)cc2)n1 (stereo not drawn) [Example P191] | ++ (>30-60 fold (++)) | –
CCOc1cncc(-c2ccc(NC(=O)C(C)(C)c3cncc(NS(=O)(=O)C4CC4)n3)nc2)n1 [Example P195] | +++ (>60 fold (+++)) | –
CCOc1cncc(-c2ccc(NC(=O)C(C)(C)c3cncc(NS(=O)(=O)C4CC4)n3)cc2)n1 [Example P196] | +++ (>60 fold (+++)) | –
CCOc1cncc(-c2ccc(NC(=O)C3(c4cncc(NS(=O)(=O)C5CC5)n4)CCOCC3)nc2)n1 [Example P197] | +++ (>60 fold (+++)) | –
CCOc1cncc(-c2ccc(NC(=O)C(C)(CCOC)c3cncc(NS(=O)(=O)C4CC4)n3)nc2)n1 (stereo not drawn) [Example P198] | +++ (>60 fold (+++)) | –
CCOc1cncc(-c2ccc(NC(=O)C(F)(CC)c3cncc(NS(=O)(=O)C4CC4)n3)nc2)n1 (stereo not drawn) [Example P200] | ++ (>30-60 fold (++)) | –
CCOc1cncc(-c2ccc(NC(=O)C(CC)c3cncc(NS(=O)(=O)C4CC4)n3)nc2)n1 (stereo not drawn) [Example P201] | +++ (>60 fold (+++)) | –
CCOc1cncc(-c2ccc(NC(=O)C(CC)c3cncc(NS(=O)(=O)C4CC4)n3)cc2)n1 (stereo not drawn) [Example P202] | +++ (>60 fold (+++)) | –
CCOc1cncc(-c2ccc(NC(=O)C(C)(OC)c3cncc(NS(=O)(=O)C4CC4)n3)nc2)n1 (stereo not drawn) [Example P205a] | +++ (>60 fold (+++)) | –
CCOc1cncc(-c2ccc(NC(=O)C(C)(OC)c3cncc(NS(=O)(=O)C4CC4)n3)nc2)n1 (stereo not drawn) [Example P205b] | ++ (>30-60 fold (++)) | –
CCOc1cncc(-c2ccc(C(=O)NC(CC)c3ccnc(NS(=O)(=O)C4CC4)n3)c(F)c2)n1 (stereo not drawn) [Example P216] | +++ (>60 fold (+++)) | –
CC(C)Oc1cncc(-c2ccc(C(=O)NC(C)(C)c3cncc(NS(=O)(=O)C4CC4)n3)c(F)c2)n1 [Example P221] | + (2-30 fold (+)) | –
CC(C)(NC(=O)c1ccc(-c2cncc(C(F)(F)F)n2)cc1)c1cncc(NS(=O)(=O)C2CC2)n1 [Example P222] | + (2-30 fold (+)) | –
CCOc1cncc(-c2ccc(NC(=O)C3(c4ccnc(NS(=O)(=O)C5CC5)n4)CCC(=O)CC3)nc2)n1 [Example P226, 1-(2-(Cyclopropanesulfonamido)pyrimidin-4-yl)-N-(5-(6-ethoxypyrazin-2-yl)pyridin-2-yl)-4-oxocyclohexanecarboxamide] | – | +++ (>60 fold (+++))
CCOc1cncc(-c2ccc(NC(=O)C3(c4ccnc(NS(=O)(=O)C5CC5)n4)CCC(F)(F)CC3)nc2)n1 [Example P242] | – | +++ (>60 fold (+++))
CCOc1cncc(-c2ccc(NC(=O)C3(c4ccnc(NS(=O)(=O)C5CC5)n4)CCC4(CC3)OCCO4)nc2)n1 [Example P244, 8-(2-(cyclopropanesulfonamido)pyrimidin-4-yl)-N-(5-(6-ethoxypyrazin-2-yl)pyridin-2-yl)-1,4-dioxaspiro[4.5]decane-8-carboxamide] | – | +++ (>60 fold (+++))
CCOc1cncc(-c2ccc(NC(=O)C3(c4ccnc(NS(=O)(=O)C5CC5)n4)CCN(S(C)(=O)=O)CC3)nc2)n1 [Example P251] | – | +++ (>60 fold (+++))
